Assay results published in patent US11230526B1, “Cylcoalkenyl derivatives useful as agonists of the GPR120 and/or GPR40 receptors” (Janssen Pharmaceutica NV, priority 2018, dated 2022).

What was measured:
Format in all cases: cell-based
[1] = target: T1, long form of human GPR120 (Homo sapiens, UniProt Q5NUL3); assay: Human GPR120 DiscoveRx PathHunter Beta-Arrestin assay, Procedure β-arrestin A
T1 construct: host or cells: PathHunter CHO-K1 GPR120 β-Arrestin Cell Line
Method in brief: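 PathHunter CHO-K1 cells expressing long-form human GPR120 (3000/well) were seeded overnight. They were then preincubated 60 min in HBSS with 20 mM HEPES and 0.1% BSA, pH 7.4, and exposed to compound for 90 min at 37 °C. β-Arrestin recruitment was read as β-gal complementation luminescence. EC50 came from % activity versus positive control, Hill slope fixed at 1.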

[2] = target: T2, Human GPR120 short form (Homo sapiens, UniProt Q5NUL3); assay: Human GPR120 calcium flux assay, Procedure Calcium B (4200 cells/well)
T2 construct: expressed in transfected cells
T2 sequence (Q5NUL3 1-361): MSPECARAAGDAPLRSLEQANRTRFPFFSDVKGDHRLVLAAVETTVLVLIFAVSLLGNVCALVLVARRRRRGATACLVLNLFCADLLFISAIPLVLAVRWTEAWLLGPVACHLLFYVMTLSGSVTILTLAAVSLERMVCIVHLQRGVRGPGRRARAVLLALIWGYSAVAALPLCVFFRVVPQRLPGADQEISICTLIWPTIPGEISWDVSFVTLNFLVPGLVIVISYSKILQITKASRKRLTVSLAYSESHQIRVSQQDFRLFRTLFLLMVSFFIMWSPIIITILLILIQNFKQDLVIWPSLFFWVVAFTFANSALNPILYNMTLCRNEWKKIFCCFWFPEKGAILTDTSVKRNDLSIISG
Method in brief: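 HEK293 cells stably expressing human GPR120 (NM_001195755.1), 4200 cells/well, starved 1 h and loaded with Fluo-4 NW plus probenecid. Ligand-evoked calcium flux read on FLIPR for 300 s after a 10 s baseline. RFU = Fmax−Fmin; EC50 from four-parameter concentration-response fit.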

[3] = target: T3, short form of the GPR120 receptor (Homo sapiens, UniProt Q5NUL3); assay: Human GPR120 DiscoveRx PathHunter Beta-Arrestin assay, Procedure β-arrestin B
T3 construct: host or cells: PathHunter CHO-K1 GPR120S β-Arrestin Cell Line
T3 sequence (P32121 whole entry partner, one chain of several): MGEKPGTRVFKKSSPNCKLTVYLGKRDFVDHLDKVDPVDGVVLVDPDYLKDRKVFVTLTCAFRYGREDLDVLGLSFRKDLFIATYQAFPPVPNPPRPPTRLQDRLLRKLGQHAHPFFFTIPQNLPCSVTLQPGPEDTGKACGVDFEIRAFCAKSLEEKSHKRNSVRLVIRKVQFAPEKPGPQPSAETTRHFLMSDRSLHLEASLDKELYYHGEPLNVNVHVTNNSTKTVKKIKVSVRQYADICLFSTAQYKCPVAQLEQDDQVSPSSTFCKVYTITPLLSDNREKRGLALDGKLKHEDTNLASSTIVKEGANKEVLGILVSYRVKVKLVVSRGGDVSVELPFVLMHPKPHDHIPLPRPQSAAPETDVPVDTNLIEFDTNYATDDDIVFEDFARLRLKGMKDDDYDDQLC
Excerpt: Human GPR120 DiscoveRx PathHunter® Beta-Arrestin Assay Assay Principle:
The binding of an agonist (medium/long chain fatty acids or small molecule agonists) to the G-protein-coupled receptor GPR120 activates phospholipase C, leading to release of intracellular Ca^+2 through the generation of inositol 1,4,5-trisphosphate (InsP3 or IP3). GPR120 activation can also trigger intracellular signaling via recruitment of Beta-Arrestin. In the present method, agonist-induced activation of the human GPR120 receptor is monitored through the use of PathHunter® CHO-K1 GPR120 Beta-Arrestin Cell Line engineered by DiscoveRx, as detailed below. The cell lines are designed to co-express both the ProLink/Enzyme Donor (PK)-tagged GPCR and the Enzyme […] (EA)-tagged Beta-Arrestin fusion proteins. Upon GPR120 receptor stimulation/activation, the EA-tagged Beta-Arrestin portion is translocated to the tagged receptor, where the two enzyme fragments are brought within close proximity. Under these conditions, these fragments can interact and form an active Beta-gal enzyme complex through Enzyme Fragment Complementation (EFC). This active Beta-gal complex can enzymatically hydrolyse the substrate to produce a detectable light signal; therefore, activation as a function of agonist concentration can be expressed as an EC50 value to determine relative compound activities. This in vitro assay therefore serves to assess compound agonist activity of the GPR120.
In Procedure β-arrestin B the cells used were PathHunter® CHO-K1 GPR120S β-Arrestin Cell Line, expressing the short form of the GPR120 receptor (Accession #[…]), with 5000 cells/well.
The selected CHO-K1 GPR120 β-Arrestin cells were cultured in Ham's F12 media supplemented with 10% fetal bovine serum (FBS), 1% Glutamine, 1×p/s, 800 μg/mL G418 and 300 μg/mL Hygromycin B (for selection). Cell stocks were maintained and grown in a sub-confluent state using standard cell culture procedures. The day before the experiment, the cells were harvested with non-enzymatic cell dissociation buffer and re-suspended in complete growth media at the desired concentration. A Corning 384-plate was then seeded with the proper number of cells in a volume of 25 μL, per well. The seeded plates were incubated overnight at 37° C.
On the day of the experiment, the Assay Buffer containing (a) HBSS with Ca^++ and Mg^++, (b) 20 mM HEPES, and (c) 0.1% BSA stabilizer (pH 7.4) was prepared. The growth medium was gently removed from the cell plates and 20 μL of Assay Buffer added to each well. The plate was then incubated at 37° C. for 60 min. Test compounds were serially diluted in Assay Buffer to desired concentrations (more particularly to one or more of the following μM concentrations: 25, 12.5, 6.25, 3.12, 1.56, 0.78, 0.39, 0.19, 0.10, 0.05, 0.02, 0.01). Five μL of compound dilution was then added to each well and the plate incubated at 37° C. for 90 min. The detection reagents were prepared according to the manufacture's instruction. Twelve μL of the detection reagents were added to each well and the plate incubated at room temperature for 60 min.
The plates were read on an EnVision instrument, using Protocol name: Luminescence, Plate type: 384 Costar, Measurement height: 3 mm, Measurement time: 1 s, Aperture: 384 Plate aperture. The % Activity relative to the positive control was calculated using the following equation:
The % Activity values were plotted versus the concentration of test compound and fitted to a sigmoidal dose-response curve with a Hill slope=1 (fixed value) using nonlinear regression with GraphPad Prism 5.0 to calculate the EC50 values. The Fitting Equation was: Y=Bottom+(Top-Bottom)/(1+10^((Log EC50−X)*HillSlope)), where X is the log of the concentration and Y is the response.

[4] = target: T4, human GPR40 (Homo sapiens, UniProt O14842); assay: GPR40 calcium flux assay, human GPR40; conditions: HEK293 cells stably expressing GPR40; table does not say human or rat
T4 construct: expressed in transfected cells
T4 sequence (O14842 whole entry): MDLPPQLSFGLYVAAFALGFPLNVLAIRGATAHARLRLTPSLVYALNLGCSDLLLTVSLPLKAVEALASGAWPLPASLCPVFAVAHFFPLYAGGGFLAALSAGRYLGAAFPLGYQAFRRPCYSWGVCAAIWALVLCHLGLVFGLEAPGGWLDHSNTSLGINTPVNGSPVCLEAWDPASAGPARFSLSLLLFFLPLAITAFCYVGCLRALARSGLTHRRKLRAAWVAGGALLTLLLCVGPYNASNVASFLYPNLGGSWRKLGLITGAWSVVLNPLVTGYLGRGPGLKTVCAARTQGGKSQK
Method in brief: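 Cells preincubated 1 h at 37° C. in HBSS, 20 mM HEPES, 0.1% BSA, then Fluo 8 calcium dye 30 min at 37° C. and 15 min at room temperature.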

[5] = target: T2, Human GPR120 short form; assay: Human GPR120 calcium flux assay, Procedure Calcium A (2500 cells/well)
Excerpt: Human GPR120 in Calcium Flux Assay
This in vitro assay serves to assess test compound agonist activity against the short splice variant (SVS with Accession number NM_001195755.1 confirmed by sequencing data) of the GPR120 receptor. The Human Short splice variant #2 (NM_001195755.1) is missing an in-frame coding exon compared to variant 1 (the Human Long splice variant NM_181745.3), resulting in a shorter isoform (GPR120-S) lacking a 16 aa protein segment compared to isoform GPR120-L. The assay platform utilizes HEK-293 cells stably transfected to express the Human GPR120 short form. These cells are first loaded with the Ca^+2 sensitive dye, Fluo-4 NW. Upon stimulation, intracellular released Ca^+2 can bind to the dye and alter its fluorescence intensity. This increase in fluorescence signal, and thus the flux in intracellular [Ca^2+], is detected and quantitated by fluorescence imaging using a FLIPR reader. The effect of the agonist is measured as a function of concentration and used to calculate an EC50 based upon a response curve.
In this procedure 2500 cells/well were employed.
A Human GPR120 clone (Genbank accession number NM_001195755.1) was placed into the pcDNA3.1 mammalian expression vector carrying the neomycin resistance gene. A stable mammalian cell was generated by placing the above clone into a HEK293 background. Clonal cells responding to long chain fatty acids had expression levels of GPR120 confirmed by RT-qPCR. Human HEK-GPR120 cells were cultured in Dulbecco's Modified Eagle's Medium (DMEM)/F12 medium supplemented with 10% fetal bovine serum (FBS), 1% L-Glutamine and 1% penicillin/streptomycin and 0.5 mg/ml G-418. Cells were split 2 times a week to keep the cells in the log-phase growth.
In preparation for the assay, HEK cells stably transfected with Human GPR120 (2.5K cells per well in 25 uL growth medium) were seeded into 384-well plates and then incubated overnight (37° C., 5% CO2). The next day, the media was changed to 20 μL assay buffer and the cell starved for 1 h at 37° C. The dye loading solution (2× dye) was prepared using 10 mL assay buffer, 100 μL of 250 mM probenecid, 1 bottle of Component A, and 20 μl of dye in DMSO. Twenty μL of the 2× dye loading buffer was then added to each well. The plates were incubated at 37° C. for 30 min, then at room temperature for an additional 15 minutes, before performing the assay on FLIPR.
The assay was performed on a FLIPR plate reader using the following parameters. Baseline was read for 10 seconds at 1 sec intervals. The program was set to transfer 10 μL of ligand from compound plate to cell plate after baseline reading. Aspiration was executed at: 10 μL/sec speed, 4.6 μL height, Dispensing was executed at: 30 μL/sec speed, 45 μL height. After compound addition, each well was read for 300 sec, with measurements collected at 1 sec intervals.
The kinetic data from the FLIPR was based upon a 5 minute window for data collection. The fluorescence of each sample well was used for individual calculations of a normalized RFU value, which was defined as maximum response minus the minimum response. The normalized fluorescence reading (RFU) was calculated as follows: RFU=Fmax−Fmin
The Fitting Equation was: Y=Bottom+(Top-Bottom)/(1+10^((Log EC50−X)*HillSlope)), where X is the log of the concentration and Y is the response.

T1 sequence (Q5NUL3 1-377 isoform Q5NUL3-1): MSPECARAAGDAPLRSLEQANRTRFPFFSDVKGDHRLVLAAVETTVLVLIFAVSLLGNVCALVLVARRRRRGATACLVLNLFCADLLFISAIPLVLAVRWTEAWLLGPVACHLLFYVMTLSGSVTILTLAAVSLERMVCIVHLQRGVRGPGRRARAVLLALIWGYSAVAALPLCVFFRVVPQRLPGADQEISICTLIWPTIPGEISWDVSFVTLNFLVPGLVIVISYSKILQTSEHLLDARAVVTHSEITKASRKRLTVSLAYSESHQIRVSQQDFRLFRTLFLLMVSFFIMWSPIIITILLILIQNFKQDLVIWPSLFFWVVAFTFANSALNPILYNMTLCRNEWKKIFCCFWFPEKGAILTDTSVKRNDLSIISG
T1 sequence (P32121 whole entry partner): as the sequence (P32121 whole entry partner, one chain of several) above

EC50 [1] | EC50 [2] | EC50 [3] | EC50 [4] | EC50 [5] | Compound
 |  | 493 nM | > 5000 nM |  | Cc1ccc(C2=C(COc3ccc(CCC(=O)O)c(F)c3F)CCC2)cn1 [Compound 87, 3-(2,3-difluoro-4-((2-(6-methylpyridin-3-yl)cyclopent-1-en-1-yl)methoxy)phenyl)Propanoic Acid]
 |  | 1250 nM | > 5000 nM |  | Cc1ccc(C2=C(COc3c(F)cc(CCC(=O)O)cc3F)CCC2)cc1N [Compound 135, 3-(4-((2-(3-amino-4-methylphenyl)cyclopent-1-en-1-yl)methoxy)-3,5-difluorophenyl)Propanoic Acid]
 | 21 nM | 47 nM | > 5000 nM |  | O=C(O)CCc1ccc(OCC2=C(c3ccc(Cl)cc3)CCC2)c(Br)c1 [Compound 129, 3-[3-bromo-4-[[2-(4-chlorophenyl)cyclopenten-1-yl]methoxy]phenyl]Propanoic Acid]
 | 208 nM |  | > 5000 nM | 1560 nM | Cc1c(CCC(=O)O)ccc(OCC2=C(c3ccc(C#N)cc3)CCC2)c1C [Compound 146, 3-[4-[[2-(4-cyanophenyl)cyclopenten-1-yl]methoxy]-2,3-dimethyl-phenyl]Propanoic Acid]
 | 475 nM |  | > 5000 nM | 1330 nM | Cc1c(CCC(=O)O)ccc(OCC2=C(c3ccc(I)cc3)CCCC2)c1C [Compound 476, 3-[4-[[2-(4-iodophenyl)cyclohexen-1-yl]methoxy]-2,3-dimethyl-phenyl]Propanoic Acid]
 | 626 nM |  | > 5000 nM | 1280 nM | Cc1ccc(C2=C(COc3ccc(CCC(=O)O)c(C)c3C)CCCC2)cn1 [Compound 521]
 | 1620 nM |  | > 5000 nM | 4810 nM | CCCc1ccc(C2=C(COc3ccc(CCC(=O)O)c(C)c3C)CCCC2)cc1 [Compound 463, 3-[2,3-dimethyl-4-[[2-(4-propylphenyl)cyclohexen-1-yl]methoxy]phenyl]Propanoic Acid]

The remaining lines, values behind:

Compound | EC50 [1] | EC50 [2] | EC50 [3] | EC50 [4] | EC50 [5]
O=C(O)CCc1ccc(OCC2=C(c3ccc(Cl)cc3)CCC2C(F)(F)F)c(F)c1F (stereo not drawn) [Compound 32, 3-[4-[[2-(4-chlorophenyl)-5-(trifluoromethyl)cyclopenten-1-yl]methoxy]-2,3-difluoro-phenyl]Propanoic Acid] | 341 nM | 311 nM | 203 nM | > 5000 nM | 
Cc1c(CCC(=O)O)ccc(OCC2=C(c3ccc(Cl)cc3)CCC2C(F)(F)F)c1C (stereo not drawn) [Compound 12, 3-[4-[[2-(4-chlorophenyl)-5-(trifluoromethyl)cyclopenten-1-yl]methoxy]-2,3-dimethyl-phenyl]Propanoic Acid] |  | 481 nM | 93 nM | > 5000 nM | 
Cc1c(CCC(=O)O)ccc(OCC2=C(c3ccc(F)c(F)c3)CCC2)c1C [Compound 117] | 256 nM | 110 nM | 190 nM | > 5000 nM | 
O=C(O)CCc1cc(F)c(OCC2=C(c3ccc(Cl)cc3)CCC2C(F)(F)F)c(F)c1 (stereo not drawn) [Compound 33, 3-[4-[[2-(4-chlorophenyl)-5-(trifluoromethyl)cyclopenten-1-yl]methoxy]-3,5-difluoro-phenyl]Propanoic Acid] | 312 nM | 288 nM | 180 nM | > 5000 nM | 
CC(Cc1ccc(OCC2=C(c3ccc(F)cc3)CCC2)c(F)c1)C(=O)O (stereo not drawn) [Compound 458, 3-(3-fluoro-4-((2-(4-fluorophenyl)cyclopent-1-en-1-yl)methoxy)phenyl)-2-methylpropanoic Acid] |  | 331 nM | 371 nM |  | 
Cc1c(CCC(=O)O)ccc(OCC2=C(c3cc(Cl)cc(Cl)c3)CCC2)c1C [Compound 112, 3-[4-[[2-(3,5-dichlorophenyl)cyclopenten-1-yl]methoxy]-2,3-dimethyl-phenyl]Propanoic Acid′] |  | 3070 nM |  | > 5000 nM | 2460 nM
